From US20250353855A1, “HETEROCYCLIC AND HETEROARYL COMPOUNDS FOR TREATING HUNTINGTON'S DISEASE” (PTC THERAPEUTICS, INC., priority 2022, published 2025)

The compounds below were run on Endogenous Huntingtin Protein (assay: Endogenous Huntingtin Protein Assay (ELISA-based MSD electrochemiluminescence)). Settings: MSD plates coated with MW1 (expanded polyglutamine) or MAB2166 capture antibody; lysates.
Type: cell-based
Method: Compounds of Formula (T) were tested using the Meso Scale Discovery (MSD) Assay provided in International Application No. PCT/US2016/066042, filed on Dec. 11, 2016 and claiming priority to U.S. Provisional Application 62/265,652 filed on Dec. 10, 2015, the entire contents of which are incorporated herein by reference.
The Endogenous Huntingtin Protein assay used in Example 1 was developed using the ELISA-based MSD electrochemiluminescence assay platform.
Meso Scale Discovery (MSD) 96-well or 384-well plates were coated overnight at 4° C. with MW1 (expanded polyglutamine) or MAB2166 monoclonal antibody (for capture) at a concentration of 1 μg/mL in PBS (30 μL per well). Plates were then washed three times with 300 μL wash buffer (0.05% Tween-20 in PBS) and blocked (100 μL blocking buffer; 5% BSA in PBS) for 4-5 hours at room temperature with rotational shaking and then washed three times with wash buffer.
Samples (25 μL) were transferred to the antibody-coated MSD plate and incubated overnight at 4° C. After removal of the lysates, the plate was washed three times with wash buffer, and 25 μL of #5656S (Cell signaling; rabbit monoclonal) secondary antibody (diluted to 0.25 μg/mL in 0.05% Tween-20 in blocking buffer) was added to each well and incubated with shaking for 1 Hour at room temperature. Following incubation with the secondary antibody, the wells were rinsed with wash buffer after which 25 μL of goat anti-rabbit SULFO TAG secondary detection antibody (required aspect of the MSD system) (diluted to 0.25 μg/mL in 0.05% Tween-20 in blocking buffer) was added to each well and incubated with shaking for 1 hour at room temperature. After rinsing three times with wash buffer, 150 μL of read buffer T with surfactant (MSD) were added to each empty well, and the plate was imaged on a SI 6000 imager (MSD) according to manufacturers' instructions provided for 96- or 384-well plates.
For CC1(C)C[C@H](N2CCc3cc(-c4cc5ncccc5cc4O)nnc32)[C@H](F)C(C)(C)N1 [Cpd 80, 7-{7-[(3S,4S)-3-fluoro-2,2,6,6-tetramethylpiperidin-4-yl]-6,7-dihydro-5H-pyrrolo[2,3-c]pyridazin-3-yl}quinolin-6-ol], the IC50 was < 100 nM.
Cc1nc2cc(O)c(-c3cc4ccn([C@@H]5CCNC(C)(C)[C@@H]5F)c4nn3)cc2o1 [Cpd 20, 6-{7-[(3R,4R)-3-fluoro-2,2-dimethylpiperidin-4-yl]-7H-pyrrolo[2,3-c]pyridazin-3-yl}-2-methyl-1,3-benzoxazol-5-ol] was tested, and the IC50 was < 100 nM.
With COc1cnc2cc(-c3cc4ccn([C@H]5CC(C)(C)NC(C)(C)[C@H]5F)c4nn3)c(O)cc2n1 [Cpd 33, 7-{7-[(3S,4S)-3-fluoro-2,2,6,6-tetramethylpiperidin-4-yl]-7H-pyrrolo[2,3-c]pyridazin-3-yl}-3-methoxyquinoxalin-6-ol] the IC50 was < 100 nM.

Same assay, conditions: MSD plates coated with MW1 (expanded polyglutamine) or MAB2166 capture antibody; lysates; read-out: IC50
Cn1c(=O)cnc2cc(-c3cc4ccn([C@H]5CC(C)(C)NC(C)(C)[C@H]5F)c4nn3)c(O)cc21 [Cpd 26, 6-{7-[(3S,4S)-3-fluoro-2,2,6,6-tetramethylpiperidin-4-yl]-7H-pyrrolo[2,3-c]pyridazin-3-yl}-7-hydroxy-1-methylquinoxalin-2(1H)-one] was tested, and the IC50 was < 100 nM.
CC1(C)C[C@H](n2ccc3cc(-c4cc5ccccc5cc4O)nnc32)[C@H](F)C(C)(C)N1 [Cpd 28, 3-{7-[(3S,4S)-3-fluoro-2,2,6,6-tetramethylpiperidin-4-yl]-7H-pyrrolo[2,3-c]pyridazin-3-yl}naphthalen-2-ol] was tested, and the IC50 was < 100 nM.
With Cc1nc2cc(O)c(-c3cc4c(nn3)N([C@H]3C[C@@H]5CC[C@@H](N5)[C@H]3F)CC4)cc2s1 (single isomer, unassigned) [Cpd 58, 6-{7-[(1R,2R,3S,5S)-2-fluoro-8-azabicyclo[3.2.1]octan-3-yl]-6,7-dihydro-5H-pyrrolo[2,3-c]pyridazin-3-yl}-2-methyl-1,3-benzothiazol-5-ol or 6-{7-[(1S,2S,3R,5R)-2-fluoro-8-azabicyclo[3.2.1]octan-3-yl]-6,7-dihydro-5H-pyrrolo[2,3-c]pyridazin-3-yl}-2-methyl-1,3-benzothiazol-5-ol] the IC50 was < 100 nM.
Cc1cc(=O)c2cc(-c3cc4c(nn3)N([C@H]3CC(C)(C)NC(C)(C)[C@H]3F)CC4)c(O)cc2o1 [Cpd 68, 6-{7-[(3S,4S)-3-fluoro-2,2,6,6-tetramethylpiperidin-4-yl]-6,7-dihydro-5H-pyrrolo[2,3-c]pyridazin-3-yl}-7-hydroxy-2-methyl-4H-1-benzopyran-4-one] was tested, and the IC50 was < 100 nM.
For Cn1ccc(=O)c2cc(-c3cc4ccn([C@H]5CC(C)(C)NC(C)(C)[C@H]5F)c4nn3)c(O)cc21 [Cpd 18, 6-{7-[(3S,4S)-3-fluoro-2,2,6,6-tetramethylpiperidin-4-yl]-7H-pyrrolo[2,3-c]pyridazin-3-yl}-7-hydroxy-1-methylquinolin-4(1H)-one], the IC50 was < 100 nM.
Cc1ccc2cc(O)c(-c3cc4c(nn3)N([C@H]3CC(C)(C)NC(C)(C)[C@H]3F)CC4)cc2n1 [Cpd 77, 7-{7-[(3S,4S)-3-fluoro-2,2,6,6-tetramethylpiperidin-4-yl]-6,7-dihydro-5H-pyrrolo[2,3-c]pyridazin-3-yl}-2-methylquinolin-6-ol] was tested, and the IC50 was < 100 nM.
For Cn1cc2cc(O)c(-c3cc4c(nn3)N([C@H]3CC(C)(C)NC(C)(C)[C@H]3F)CC4)cc2n1 [Cpd 89, 6-{7-[(3S,4S)-3-fluoro-2,2,6,6-tetramethylpiperidin-4-yl]-6,7-dihydro-5H-pyrrolo[2,3-c]pyridazin-3-yl}-2-methyl-2H-indazol-5-ol], the IC50 was < 100 nM.
CC1(C)C[C@H](N2CCc3cc(-c4cc5cc(F)cnc5cc4O)nnc32)[C@H](F)C(C)(C)N1 [Cpd 93, 3-fluoro-6-{7-[(3S,4S)-3-fluoro-2,2,6,6-tetramethylpiperidin-4-yl]-6,7-dihydro-5H-pyrrolo[2,3-c]pyridazin-3-yl}quinolin-7-ol] was tested, and the IC50 was < 100 nM.
For Cn1nnc2cc(-c3cc4ccn([C@H]5CC(C)(C)NC(C)(C)[C@H]5F)c4nn3)c(O)cc21 [Cpd 41, 5-{7-[(3S,4S)-3-fluoro-2,2,6,6-tetramethylpiperidin-4-yl]-7H-pyrrolo[2,3-c]pyridazin-3-yl}-1-methyl-1H-benzotriazol-6-ol], the IC50 was < 100 nM.
For CC1(C)C[C@H](N2CCc3cc(-c4cc5cnccc5cc4O)nnc32)[C@H](F)C(C)(C)N1 [Cpd 54, 7-{7-[(3S,4S)-3-fluoro-2,2,6,6-tetramethylpiperidin-4-yl]-6,7-dihydro-5H-pyrrolo[2,3-c]pyridazin-3-yl}isoquinolin-6-ol], the IC50 was < 100 nM.
For Cc1nc2cc(O)c(-c3cc4c(nn3)N([C@H]3CC(C)(C)NC(C)(C)[C@H]3F)CC4)cc2o1 [Cpd 44, 6-{7-[(3S,4S)-3-fluoro-2,2,6,6-tetramethylpiperidin-4-yl]-6,7-dihydro-5H-pyrrolo[2,3-c]pyridazin-3-yl}-2-methyl-1,3-benzoxazol-5-ol], the IC50 was < 100 nM.
Cc1nc2cc(O)c(-c3cc4ccn([C@H]5CC(C)(C)NC(C)(C)[C@H]5F)c4nn3)cc2s1 [Cpd 4, 6-{7-[(3S,4S)-3-fluoro-2,2,6,6-tetramethylpiperidin-4-yl]-7H-pyrrolo[2,3-c]pyridazin-3-yl}-2-methyl-1,3-benzothiazol-5-ol] was tested, and the IC50 was < 100 nM.
Cc1cnc2cc(-c3cc4c(nn3)N([C@@H]3C[C@H]5CC[C@H](N5)[C@@H]3F)CC4)c(O)cc2n1 (single isomer, unassigned) [Cpd 91, 7-{7-[(1S,2S,3R,5R)-2-fluoro-8-azabicyclo[3.2.1]octan-3-yl]-6,7-dihydro-5H-pyrrolo[2,3-c]pyridazin-3-yl}-3-methylquinoxalin-6-ol or 7-{7-[(1R,2R,3S,5S)-2-fluoro-8-azabicyclo[3.2.1]octan-3-yl]-6,7-dihydro-5H-pyrrolo[2,3-c]pyridazin-3-yl}-3-methylquinoxalin-6-ol] was tested, and the IC50 was < 100 nM.
With Cc1ncc2cc(O)c(-c3cc4ccn([C@H]5CC(C)(C)NC(C)(C)[C@H]5F)c4nn3)cc2n1 [Cpd 39, 7-{7-[(3S,4S)-3-fluoro-2,2,6,6-tetramethylpiperidin-4-yl]-7H-pyrrolo[2,3-c]pyridazin-3-yl}-2-methylquinazolin-6-ol] the IC50 was < 100 nM.
In the case of Cc1nc2cc(-c3cc4ccn([C@H]5CC(C)(C)NC(C)(C)[C@H]5F)c4nn3)c(O)c(F)c2o1 [Cpd 102, 7-fluoro-5-{7-[(3S,4S)-3-fluoro-2,2,6,6-tetramethylpiperidin-4-yl]-7H-pyrrolo[2,3-c]pyridazin-3-yl}-2-methyl-1,3-benzoxazol-6-ol], the IC50 is reported as < 100 nM.
Cc1nc2cc(-c3cc4c(nn3)N([C@H]3CC(C)(C)NC(C)(C)[C@H]3F)CC4)c(O)cc2n1C [Cpd 48, 5-{7-[(3S,4S)-3-fluoro-2,2,6,6-tetramethylpiperidin-4-yl]-6,7-dihydro-5H-pyrrolo[2,3-c]pyridazin-3-yl}-1,2-dimethyl-1H-benzimidazol-6-ol] was tested, and the IC50 was < 100 nM.
For CC1(C)C[C@H](N2CCc3cc(-c4cc5occc(=O)c5cc4O)nnc32)[C@H](F)C(C)(C)N1 [Cpd 82, 7-{7-[(3S,4S)-3-fluoro-2,2,6,6-tetramethylpiperidin-4-yl]-6,7-dihydro-5H-pyrrolo[2,3-c]pyridazin-3-yl}-6-hydroxy-4H-1-benzopyran-4-one], the IC50 was < 100 nM.
In the case of COc1nc2cc(O)c(-c3cc4ccn([C@H]5CC(C)(C)NC(C)(C)[C@H]5F)c4nn3)cc2s1 [Cpd 96, 6-{7-[(3S,4S)-3-fluoro-2,2,6,6-tetramethylpiperidin-4-yl]-7H-pyrrolo[2,3-c]pyridazin-3-yl}-2-methoxy-1,3-benzothiazol-5-ol], the IC50 is reported as < 100 nM.
In the case of Cn1cc2cc(O)c(-c3cc4ccn([C@H]5CC(C)(C)NC(C)(C)[C@H]5F)c4nn3)cc2n1 [Cpd 38, 6-{7-[(3S,4S)-3-fluoro-2,2,6,6-tetramethylpiperidin-4-yl]-7H-pyrrolo[2,3-c]pyridazin-3-yl}-2-methyl-2H-indazol-5-ol], the IC50 is reported as < 100 nM.
For CSc1nc2cc(O)c(-c3cc4ccn([C@H]5CC(C)(C)NC(C)(C)[C@H]5F)c4nn3)cc2s1 [Cpd 99, 6-{7-[(3S,4S)-3-fluoro-2,2,6,6-tetramethylpiperidin-4-yl]-7H-pyrrolo[2,3-c]pyridazin-3-yl}-2-(methylsulfanyl)-1,3-benzothiazol-5-ol], the IC50 was < 100 nM.
In the case of CC1(C)C[C@H](N2CCc3cc(-c4cc5ncc(F)cc5cc4O)nnc32)[C@H](F)C(C)(C)N1 [Cpd 90, 3-fluoro-7-{7-[(3S,4S)-3-fluoro-2,2,6,6-tetramethylpiperidin-4-yl]-6,7-dihydro-5H-pyrrolo[2,3-c]pyridazin-3-yl}quinolin-6-ol], the IC50 is reported as < 100 nM.
With CC1(C)C[C@H](n2ccc3cc(-c4cc5c(Cl)ccnc5cc4O)nnc32)[C@H](F)C(C)(C)N1 [Cpd 21, 4-chloro-6-{7-[(3S,4S)-3-fluoro-2,2,6,6-tetramethylpiperidin-4-yl]-7H-pyrrolo[2,3-c]pyridazin-3-yl}quinolin-7-ol] the IC50 was 100 to 500 nM.
Compound CC1(C)CC(n2nnc3cc(-c4cc5cccnc5cc4O)nnc32)CC(C)(C)N1 [Cpd 2, 6-[3-(2,2,6,6-tetramethylpiperidin-4-yl)-3H-[1,2,3]triazolo[4,5-c]pyridazin-6-yl]quinolin-7-ol] has an IC50 of 1000 to 3000 nM.
